Article PMC12040169 (PLOS Biology, 2025)

test: in vitro; conditions: human, hela cells, % viability

In order of falling viability at 28.5 h, 10 µM:
1. O=C(N[C@H]1CO[C@H]2[C@@H]1OC[C@@H]2n1nnnc1-c1ccccc1)c1ccccc1 [CBK289482]  120%
2. COc1ccc(C2(C(=O)NCc3ccc(OC(F)(F)F)cc3)CC2)cc1 [CBK149823]  117%
3. O=C(NCc1ccccc1OC1CCNC1)c1ccccc1 (stereo not shown) [CBK028301T]  114%
4. Cc1ccc(S(=O)(=O)Nc2ccc(N3CCCNCC3)cc2N(C)S(C)(=O)=O)cc1 [CBK000017C]  113%
5. Cc1nc2c(C(=O)NCC(F)(F)F)cnn2c(C)c1Cc1cccc(F)c1 [CBK162117]  112%
6. Cc1sc(NC(=S)NC(=O)COc2ccc(Br)cc2Cl)c(C(N)=O)c1C [CBK266127]  111%
7. COc1ccc(-c2ccc(CCC(=O)O)n2-c2ccc(N(C)C)cc2)cc1 [CBK131895]  110%
8. O=C(O)c1cccc(N2C(=O)C3C4C=CC(C3C2=O)C2C(=O)N(c3cccc(C(=O)O)c3)C(=O)C42)c1 (stereo not shown) [CBK261495]  110%
9. COc1ccc(F)c(CN(CC(C)(C)CN)C(=O)Nc2c(F)cccc2F)c1 [CBK002405C]  109%
10. O=C(NC(C(=O)O)c1ccccc1)NC12CC3CC(CC(C3)C1)C2 (stereo not shown) [CBK268313]  109%
11. N=c1n(CC(=O)O)c2ccccc2n1Cc1ccccc1 [CBK286531]  108%
12. CCc1nc2ccc(C(=O)NCc3cccs3)cn2c1N(C)CC [CBK145492]  108%
13. Cc1ccc(C(=O)Nc2ncn(CC(=O)N3CCCCCC3)n2)cc1 [CBK304569]  106%
14. O=C(CC(C(=O)O)N1CCOCC1)Nc1ccc(Cl)cc1 (stereo not shown) [CBK267086]  105%
15. CCn1c(N2CCC(C(=O)NCC3CC3)CC2)nc2ccccc21 [CBK283983]  104%
16. Cc1ccc(N2C(=O)CSC23C(=O)Nc2ccccc23)cc1Br (stereo not shown) [CBK093472]  104%
17. CCNc1nc(NCc2ccccc2)nc(Oc2ccc(=O)[nH]n2)n1 [CBK266591]  104%
18. O=C(NCC1CCCCC1)N1CCN(c2cc(C(F)(F)F)ccn2)CC1 [CBK162323]  103%
19. O=S(=O)(NCC1(c2ccccc2)CCCC1)c1cccnc1 [CBK282762]  102%
20. O=C(NCc1cccnc1)c1ccc(-c2cccc(Cl)c2Cl)o1 [CBK112211]  102%
21. O=C(c1cnccn1)N1CCN(CCc2ccccc2)CC1 [CBK200224]  101%
22. Cc1ncccc1COC(=O)N1c2ccccc2CCC1C (stereo not shown) [CBK200204]  101%
23. O=c1[nH]c(=S)c2c(n1CCc1ccccn1)CCCC2 [CBK023951G]  101%
24. Cc1ccccc1OCc1nn2c(C)nnc2s1 [CBK269220]  100%
25. OCC1CCCN1c1cncc(-c2cccnc2)n1 (stereo not shown) [CBK065439]  100%
26. Cc1cc2c(o1)c1cnn(CC(=O)N3CCCC3)c(=O)c1n2C [CBK284223]  100%
27. CCn1c(C)nnc1SCCNc1cc(C)nc2ccnn12 [CBK306607]  99.7%
28. O=C(c1ccccc1[N+](=O)[O-])n1nc(-c2cccnc2)nc1NCc1cccs1 [CBK269094]  99.5%
29. Cc1ccc(S(=O)(=O)N(C)c2ccnc(N3CCN(C)CC3)n2)cc1 [CBK000671]  99.4%
30. Cc1ccc(NC(=O)c2cnc3ccccc3c2)c(C)n1 [CBK200290]  99.1%
31. Cc1csc2c(N3CCC(NCCCc4cnn(C)c4)CC3)ncnc12 [CBK307291]  98.2%
32. CC(=O)c1ccc(-c2cnc(N)c(N3CCC[C@@H]3CO)n2)s1 [CBK063438]  97.9%
33. Cc1cccc(-c2ncc(NC(=O)COc3ccc([N+](=O)[O-])cc3)nc2-c2cccnc2)c1 [CBK037096]  97.8%
34. Cc1ccc(C2(O)CCN(CCNC(=O)C3CCCCC3)CC2)cc1 [CBK283323]  97.4%
35. Cc1nc2c(C(=O)NCCCOC(C)C)cnn2c(C)c1Cc1cccc(Cl)c1 [CBK162043]  97.1%
36. O=[N+]([O-])c1ccc2c(c1)C(N1CCOCC1)/C(=C/COc1ccc3ccccc3c1Br)O2 (stereo not shown) [CBK262738]  97.1%
37. N[C@@H]1CCCN(C(=O)C2CC2)[C@H]1c1ccccc1F [CBK281563]  97%
38. O=C(NCc1cccs1)OCc1ccccc1 [CBK008074]  96.6%
39. NC(=O)c1ccsc1NC(=O)C(F)(F)F [CBK010915]  96.4%
40. Fc1ccccc1COc1ccccc1CNCCN1CCOCC1 [CBK278222C]  96.4%
41. Cc1ccc(C(=O)CCC(=O)CCC(=O)O)cc1 [CBK265546]  95.6%
42. CCOc1ccc2nc(SCC(=O)Nc3c(C)n(C)n(-c4ccccc4)c3=O)sc2c1 [CBK267229]  95.5%
43. Cc1cccc(-n2ncc3c(=O)n(CC(=O)Nc4ccccc4)cnc32)c1C [CBK287693]  95.1%
44. CC(C(=O)NCCc1cn(C)c2ccc(Cl)cc12)N1CCOCC1 (stereo not shown) [CBK282263]  94.6%
45. CC(C)c1ccc(/C=C/C(=O)NC(=S)Nc2cccc(C(=O)O)c2)cc1 [CBK265024]  94.3%
46. CC(C)CC(=O)Nc1nc(OCC(F)(F)F)cnc1-c1ccc(Cl)cc1Cl [CBK145356]  94.2%
47. O=C(O)CNS(=O)(=O)c1ccc2ccccc2c1 [CBK034460]  94.1%
48. CCn1cc(C2CN(S(=O)(=O)c3cccc(COC)c3)CCO2)cn1 (stereo not shown) [CBK304222]  93.7%
49. COc1ccc(Cl)cc1NC(=O)C1CN(S(=O)(=O)c2ccccc2)CCN1S(=O)(=O)c1ccccc1 (stereo not shown) [CBK264000]  93.3%
50. Cc1ccc(/C=C/C(=O)O)cc1S(=O)(=O)NCCO [CBK264404]  93.2%
51. CN1CCN(CC(=O)Nc2cc(N3CCOCC3)ccc2[N+](=O)[O-])CC1 [CBK047475]  92.9%
52. Cc1ccc(C(=O)Nc2ccc3c(c2)OCO3)c(N2CCOCC2)n1 [CBK076377]  92.9%
53. O=C(Cn1cc(C(=O)NCC2(c3ccccc3Cl)CC2)ccc1=O)NC1CCCCC1 [CBK285985]  92.7%
54. CN(C)CCN(C)C(=O)c1cc2cc(OC(F)(F)F)ccc2[nH]1 [CBK107316]  91.5%
55. CC(NC(=O)c1ccc(-n2cccc2)cc1)c1ccccn1 (stereo not shown) [CBK296619]  91.4%
56. Cc1ccc(S(=O)(=O)Nc2nc(C)c(C(=O)O)s2)cc1[N+](=O)[O-] [CBK045565]  91.3%
57. CN(C)CCN(Cc1cc2cc3c(cc2[nH]c1=O)OCO3)C(=S)Nc1ccc(F)cc1 [CBK135186]  91.2%
58. CC1(C)CC(=O)C=C(C(=O)NCc2c(F)cccc2F)O1 [CBK153287]  91.2%
59. CCn1cc(C(=O)NC2CC3(CCCC3)Oc3ccccc32)c(C)n1 (stereo not shown) [CBK282340]  91.2%
60. O=C(O)c1cccc(-c2ccc(/C=N/NC(=O)c3sc4ccccc4c3Cl)o2)c1 [CBK263863]  91%
61. O=C(O)C1CCCN(C(=O)COc2cc3oc(=O)cc(-c4ccccc4)c3cc2Cl)C1 (stereo not shown) [CBK286753]  90.9%
62. Cc1nc(C)n(CC(=O)NCCCc2ccc(Cl)cc2)n1 [CBK281559]  90.9%
63. Cc1ccc(S(=O)(=O)Nc2ccnc(Cl)n2)cc1 [CBK067661]  90.7%
64. Cc1ccc(S(=O)(=O)NCCNc2ccc(C(F)(F)F)cc2[N+](=O)[O-])cc1 [CBK264945]  90.4%
65. O=C(NCCN1CCOCC1)c1cc(-c2cccc(Br)c2)nc2ccccc12 [CBK263625]  90.2%
66. CC(=O)N1CCc2ccc(NC(=O)c3cc(-c4ccc(C(=O)N5CCOCC5)cc4)cnc3N)cc21 [CBK160205]  89.9%
67. Cc1ccc(S(=O)(=O)N(CC(=O)NC2CCCC2)Cc2ccccc2)cc1 [CBK263166]  89.9%
68. Cc1cc(-c2cn3cc(C(=O)NCCO)nc3c(=O)n2C)c(C)o1 [CBK307288]  89.4%
69. Nc1ccc2c(-c3ccc(OC(F)(F)F)cc3)ccnc2n1 [CBK067649]  89.1%
70. Sc1nncn1NCc1cc(Cl)ccc1OCc1ccccc1 [CBK265752]  88.9%
71. CS(=O)(=O)c1cccc(S(=O)(=O)N2CCN(Cc3ccccc3)CC2)c1 [CBK269747]  88.9%
72. Cc1ccn2cc(-c3ccc4c(c3)CCN4S(C)(=O)=O)nc2c1 [CBK285221]  88.3%
73. O=S(=O)(Nc1nccnc1N1CCN(c2cnccn2)CC1)c1ccc(Cl)cc1 [CBK049664]  88.1%
74. Cc1ccc(SC(C)C(=O)Nc2cc(Cl)ccc2O)cc1 (stereo not shown) [CBK268610]  87.9%
75. CCCC(=O)c1ccc(S(=O)(=O)N2CCN(Cc3cccc(Br)c3)CC2)cc1 [CBK063146]  87.4%
76. Cc1ccc(S(=O)(=O)NC(=O)N2CCCC2)cc1 [CBK001984]  87.3%
77. O=C(c1ccco1)N1CCN(C(=O)c2ccco2)CC1 [CBK068272]  86.4%
78. O=C(Cn1cc(C(=O)NC2(c3ccccc3)CCCC2)ccc1=O)NC1CCCCC1 [CBK285986]  82.6%
79. N#Cc1c(NC(=O)CSc2nc(=O)cc(N)n2CCc2ccccc2)sc2c1CCCC2 [CBK293993]  82.4%
80. CC(NC(=O)N1CCCN(Cc2cccs2)CC1)c1nncn1C (stereo not shown) [CBK305322]  80.3%
81. CNC(=O)c1cc(-c2cccc(C)c2)oc1C [CBK047432]  80.3%
82. COc1ccc(-c2cc(C(=O)Nc3ccc(OC(F)(F)F)cc3)cnc2-c2ccccc2)cn1 [CBK036621]  79.2%
83. COC(=O)NC(=S)Nc1ccc2c(c1)OCCO2 [CBK018644]  79%
84. CCC(=O)N[C@H](CC)Cn1ncc2ccccc2c1=O [CBK284303]  77.1%
85. Cn1cc(-c2ccncc2)c(C2CCCCN2C(=O)c2ccccc2)n1 (stereo not shown) [CBK283444]  75.7%
86. O=S(=O)(Nc1ccc2[nH]ccc2c1)c1c(Cl)cc(C(F)(F)F)cc1Cl [CBK156328]  75.5%

same assay, conditions: human, hela cells, % viability, bulk resorufin, single well

In order of falling viability at 28.5 h, 10 µM:
1. COc1cc(-c2ccc3c(c2)COC2(CCN(C(=O)OC(C)(C)C)CC2)O3)ccc1O [CBK116310]  116%
2. Cc1cc(/C=C2\C(=O)NC(=O)N(Cc3ccccc3Cl)C2=O)c(C)n1-c1ccc(C(=O)O)cc1 [CBK265602]  84.9%
